Key:
2×GRE reporter = experiment: Modulation of dexamethasone/NR3C1 ligand-induced 2×GRE reporter activation (kinase inhibitors, TNF, formoterol) in BEAS-2B cells; assay type: cell-based, human; conditions: for Effect on dexamethasone-induced 2×GRE reporter activation (concentration-response): 30 min pre-treatment, 6 h (Fig. 3B, Fig. 4), JNK inhibitor VIII only at 30 μM, PKC inhibitors above 1 μM
Description: (§1) BEAS-2B cells stably transfected with a glucocorticoid response element (2×GRE) driven luciferase reporter plasmid, pGL3.neo.TATA.neo [23], were cultured in medium containing 0.25 mg/ml G-418 (Promega, Madison, WI). Cells were grown to confluence in 24 or 48 well plates and incubated overnight in serum-free media prior to experiments. Cells were harvested in reporter lysis buffer and luciferase assays performed according to the manufacturer’s instructions (Firefly Luciferase Assay Kit; Biotium; Hayward, CA) using a 20/20n luminometer (Promega).
Data (n = 7), expressed as a percentage of Dex activation, are plotted as means ± S.E. BEAS-2B 2×GRE cells were pre-treated for 30 min with the indicated concentrations of B. PS or JNK or C. JNK in the presence or absence of 10 μM PS, before addition of 10 ng/ml TNF. After 1 h, 10 μM Dex was added and cells harvested 6 h later for luciferase assay. […] D+T indicates Dex plus TNF treatment.
Data (n = 3–4), expressed as fold activation, are plotted as means ± S.E. D+T indicates Dex plus TNF treatment.
(§2) Cells were harvested after 6 h for luciferase assays. Data (n = 7), expressed as fold activation, are plotted as means ± S.E. Lines of best fit were added in panel B. Statistical analyses were performed by ANOVA with a Dunnett’s test comparing each NR3C1 ligand alone versus in the presence of TNF and/or Form. *, P<0.05; **, P<0.01; ***, P<0.001.

AKT1 phosphorylation = experiment: Western blot of AKT1 phosphorylation in BEAS-2B cells; assay type: cell-based; conditions: Homo sapiens, 30 min pre-treatment, TNF 10 ng/ml 30 min, western blot (S2 Fig.), read-out: EC50 for block of AKT1 phosphorylation
From the text: (§3) Cells were lysed in 1× Laemmli buffer supplemented with phosphatase inhibitors (Sigma-Aldrich) and 1× complete protease inhibitor cocktail (Roche; Indianapolis, IN), size fractionated on 12% acrylamide gels and subsequently electro-transferred onto Hybond enhanced chemiluminescent membranes (GE Healthcare; Waukesha, WI). Membranes were blocked in 5% milk in tris-buffered saline containing 1% tween 20 and probed with antibodies against phospho-jun proto-oncogene (pJUN; pc-Jun) (9164; Cell Signaling Technology; Danvers, MA), nuclear factor of kappa light polypeptide gene enhancer in B-cells inhibitor, alpha (NFKBIA; IκBα) (sc-371; Santa Cruz Biotechnology; Dallas, TX), phospho-NFKBIA (9246; Cell Signaling Technology), phospho-AKT1 (9271S; Cell Signaling Technology), AKT (9272S; Cell Signaling Technology) and GAPDH (4699–9555(ST); AbD Serotec; Raleigh, NC). After washing, membranes were incubated with horseradish peroxidase-conjugated anti-rabbit (111–035–003; Jackson ImmunoResearch Laboratories Inc; West Grove, PA) or anti-mouse immunoglobulin (115–035–003; Jackson ImmunoResearch Laboratories Inc). Detection was by enhanced chemiluminescence (Pierce ECL Western Blotting Substrate; Thermo Fisher Scientific Inc.; Rockford, IL) and visualization by autoradiography.
Cells were harvested after 30 min for western blotting and probed for phospho v-akt murine thymoma viral oncogene homolog 1 (pAKT1), AKT1 and glyceraldehyde 3-phosphate dehydrogenase (GAPDH). (PDF) Click here for additional data file.

[1] = test system: CDKN1C, DUSP1, RGS2 and TSC22D3 mRNA in BEAS-2B cells; experiment: RT-PCR of glucocorticoid-inducible gene expression in BEAS-2B cells
Description: Cells were harvested 6 h after Dex addition.
BEAS-2B cells were pre-treated for 30 min with either 10 or 3 μM of the JNK MAPK inhibitor JNK inhibitor VIII (JNK) or 10 μM of the IKK2 inhibitor PS-1145 (PS), before addition of 10 ng/ml tumor necrosis factor-α (TNF).
Cells were harvested 6 h after NR3C1 ligand addition.

[2] = test system: NFKBIA (IκBα) phosphorylation; experiment: Western blot of TNF-induced NFKBIA phosphorylation in BEAS-2B cells; assay type: cell-based, human; conditions: 30 min pre-treatment, TNF 2 min, western blot (S1 Fig.), read-out: EC50 for reduction of TNF-induced NFKBIA phosphorylation
From the text: as §3, with “autoradiography. […]” for “autoradiography.”

[3] = target: T1, glucocorticoid receptor (NR3C1) (Homo sapiens, UniProt P04150); experiment: 2×GRE luciferase reporter activation by NR3C1 ligands in BEAS-2B cells; assay type: cell-based; conditions: BEAS-2B 2×GRE reporter; for pEC50 (M), +TNF / E max (% Dex), +TNF: TNF 10 ng/ml pre-treatment 1 h; for pEC50 (M), +TNF / E max (% Dex), +TNF / pEC50 (M), Naive / E max (% Dex), Naive: 6 h; for E max (% Dex), +TNF / E max (% Dex), Naive: percent of 1 μM dexamethasone; for pEC50 (M), Naive / E max (% Dex), Naive: no TNF
T1 construct: BEAS-2B cells stably transfected with a glucocorticoid response element (2×GRE) driven luciferase reporter plasmid; endogenous in cells; host or cells: BEAS-2B human bronchial epithelial cells stably carrying a 2×GRE luciferase reporter
T1 sequence (P04150 1-777): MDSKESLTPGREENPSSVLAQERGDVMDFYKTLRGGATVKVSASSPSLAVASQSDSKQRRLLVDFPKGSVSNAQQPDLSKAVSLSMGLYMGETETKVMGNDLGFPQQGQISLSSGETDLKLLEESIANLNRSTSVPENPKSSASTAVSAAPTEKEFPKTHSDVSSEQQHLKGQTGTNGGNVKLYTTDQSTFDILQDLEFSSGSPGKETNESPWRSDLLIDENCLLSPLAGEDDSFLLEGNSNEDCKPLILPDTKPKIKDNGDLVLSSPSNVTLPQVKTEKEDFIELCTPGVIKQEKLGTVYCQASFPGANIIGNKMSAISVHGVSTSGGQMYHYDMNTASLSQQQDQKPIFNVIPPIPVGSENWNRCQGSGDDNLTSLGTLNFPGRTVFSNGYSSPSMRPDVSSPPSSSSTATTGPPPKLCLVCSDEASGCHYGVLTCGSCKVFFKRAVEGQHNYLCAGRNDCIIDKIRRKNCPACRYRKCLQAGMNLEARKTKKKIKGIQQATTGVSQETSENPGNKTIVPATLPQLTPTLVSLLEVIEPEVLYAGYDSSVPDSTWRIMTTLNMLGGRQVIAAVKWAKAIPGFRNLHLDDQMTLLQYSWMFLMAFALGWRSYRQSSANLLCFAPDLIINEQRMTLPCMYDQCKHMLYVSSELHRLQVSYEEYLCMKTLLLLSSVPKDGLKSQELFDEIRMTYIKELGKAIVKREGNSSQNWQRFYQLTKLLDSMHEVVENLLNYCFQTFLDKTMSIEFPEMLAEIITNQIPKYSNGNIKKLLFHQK
Description: as §1
Cells were harvested 6 h after NR3C1 ligand addition for luciferase assay.
as §2

[4] = test system: TSC22D3 mRNA in primary HBE cells; experiment: RT-PCR of dexamethasone-inducible gene expression in primary human bronchial epithelial (HBE) cells; assay type: cell-based; conditions: TNF 10 ng/ml (at 1 h) or IL1B 1 ng/ml (at 18 h), 1 μM dexamethasone
[5] = test system: TSC22D3 mRNA in primary ASM cells; experiment: RT-PCR of dexamethasone-inducible gene expression in primary human airway smooth muscle (ASM) cells; assay type: cell-based; conditions: TNF 10 ng/ml or IL1B 1 ng/ml, 1 μM dexamethasone, 6 h
[6] = 10 μM inhibitor 30 min pre-treatment, 6 h (Fig. 3A)

## COc1cccc(-c2cc(=O)c3ccccc3o2)c1N [PD098059]
2×GRE reporter; [6]
  Effect on dexamethasone-induced 2×GRE reporter activation: significantly reduced

## Oc1cccc(-c2nc(N3CCOCC3)c3oc4ncccc4c3n2)c1 [PI103]
AKT1 phosphorylation
  EC50: ~70 nM
2×GRE reporter; dexamethasone
  Effect on dexamethasone-induced 2×GRE reporter activation (concentration-response): concentration-dependently reduced

## O=C(Nc1cc(Cl)cc2c1[nH]c1cnccc12)c1cccnc1 [PS-1145]
[1]; 10 μM PS-1145, 6 h (Fig. 7)
  Effect on DUSP1 mRNA expression with dexamethasone plus TNF plus formoterol: significantly enhanced
[1]; JNK inhibitor VIII 3 or 10 μM, PS-1145 10 μM, 6 h (Fig. 7)
  Effect on dexamethasone-induced mRNA expression of CDKN1C, DUSP1, RGS2, TSC22D3 in absence or presence of TNF: no significant effect
[2]
  EC50: ~1000 nM
2×GRE reporter; 10 μM inhibitor 30 min pre-treatment, TNF 10 ng/ml, dexamethasone, 6 h (Fig. 3A)
  2×GRE reporter induction restored in presence of TNF, % of that induced by dexamethasone: 73%
2×GRE reporter; dexamethasone
  Effect on dexamethasone-induced 2×GRE reporter activation (concentration-response): no effect
2×GRE reporter; concentration-response, TNF 10 ng/ml, dexamethasone, 6 h (Fig. 3B), repression ~60% without inhibitor
  TNF-induced repression reversed to % of the response to dexamethasone: 76%
2×GRE reporter; read-out: EC50 for reversal of TNF-induced repression of 2×GRE reporter, TNF 10 ng/ml, dexamethasone, 6 h (Fig. 3B)
  EC50: 600 nM
2×GRE reporter; up to 10 μM JNK inhibitor VIII, TNF, dexamethasone (Fig. 3C)
  Additional effect of 10 μM PS-1145 on 2×GRE reporter activity with JNK inhibitor VIII: no obvious additional effect

## C[C@@H]1C[C@H]2[C@@H]3CCC4=CC(=O)C=C[C@]4(C)[C@@]3(F)[C@@H](O)C[C@]2(C)[C@H]1C(=O)CC#N [RU24858]
[3]
  Agonist type on 2×GRE reporter relative to dexamethasone: partial agonists
  pEC50 (M), +TNF: 7.3 ± 0.0 * M
  E max (% Dex), +TNF: 46.0 ± 0.8 % Dex
  pEC50 (M), Naive: 7.4 ± 0.0 M
  E max (% Dex), Naive: 74.9 ± 1.1 % Dex

## Cn1cc(C2=C(c3cn(CCCSC(=N)N)c4ccccc34)C(=O)NC2=O)c2ccccc21 [Ro 31–8220]
2×GRE reporter; dexamethasone
  Effect on dexamethasone-induced 2×GRE reporter activation (concentration-response): reduced

## C[S+]([O-])c1ccc(-c2nc(-c3ccncc3)c(-c3ccc(F)cc3)[nH]2)cc1 (stereo not drawn) [SB203580]
2×GRE reporter; [6]
  Effect on dexamethasone-induced 2×GRE reporter activation: no effect

## COC[C@H]1OC(=O)c2coc3c2[C@@]1(C)C1=C(C3=O)[C@@H]2CCC(=O)[C@@]2(C)C[C@H]1OC(C)=O [wortmannin]
AKT1 phosphorylation
  EC50: ~20 nM
2×GRE reporter; dexamethasone
  Effect on dexamethasone-induced 2×GRE reporter activation (concentration-response): concentration-dependently reduced

## GSK9027
[3]
  Agonist type on 2×GRE reporter relative to dexamethasone: partial agonists
  pEC50 (M), +TNF: 7.0 ± 0.1 M
  E max (% Dex), +TNF: 40.7 ± 0.9 % Dex
  pEC50 (M), Naive: 7.1 ± 0.0 M
  E max (% Dex), Naive: 77.2 ± 1.0 % Dex

## IL1B: pro-inflammatory cytokine interleukin-1β (R&D systems), used at 1 ng/ml
[4]
  Maximal repression of dexamethasone-induced TSC22D3 expression: 62%
[5]
  Repression of dexamethasone-induced TSC22D3 expression: 43%
